Test results: patent US8901317B2, “Tryptamine derivatives, their preparation and their use in gastropathy” (Council of Scientific & Industrial Research, priority 2010, dated 2014)

Experiments:
[1] = DPPH free radical scavenging assay
Experimental: The antioxidant property of different tryptamine derivatives were assessed and compared with the known antioxidants for potency. A range of different synthesized compounds and known anti oxidants, quercetin, ascorbic acid and gallic acid were analyzed by the FRAP assay. The FRAP assay is based on the measurement of the ability of the substance to reduce Fe^3+ to Fe^2+, greater the reducing ability greater the anti oxidant property. Antioxidants reduce Fe^3+-TPTZ in to blue colored Fe^2+-TPTZ complex, which results in an increase in the absorbance at 595 nm giving a FRAP value. […] Absorbance changes at different time intervals (FIG. 6) as well as at different concentrations (FIG. 7) at time 6 min in the presence of different compounds at 595 nm were measured. FRAP values at 6 min and 65 min were calculated from different tryptamine derivatives and some known antioxidant (Table 1). […] DPPH assay based on the DPPH free radicals scavenging power of the antioxidant molecules. Higher the scavenging power higher will be the antioxidant property. […] This assay was performed in presence of some known antioxidants such as ascorbic acid, quercetin and gallic acid.
2,2-Diphenyl-1-Picrylhydrazyl (DPPH) is a stable free radical that can accept hydrogen radical or an electron and become a stable diamagnetic molecule. The antioxidants can scavenge the DPPH by donating hydrogen as visualized by discoloration of the DPPH radical from purple to yellow (Pal, C; et al. Free Radic Biol Med, 49(2), 258-267; 2010, Ben Farhat, M.; et al. J. Agric. Food Chem. 57:10349-10356; 2009, Han, J; et al. Wei Sheng Yan Jiu 38:596-598; 2009). The assay system contained 1 mL of compounds under investigation dissolved (in methanol, some compound dissolved in water) at different concentrations in the range 10-100 μM solution and 4 ml of DPPH (0.15 mM) in methanol (80% in water v/v) and mixed well. It was allowed to stand for 30 min at 27° C. away from light. Ascorbic acid at the same concentration was taken as positive control. The absorbance of the solution was measured spectrophotometrically at 517 nm and from the decrease of absorption; the antioxidant activity of different tryptamine derivatives were determined.

[2] = tested on: Ethanol-induced gastric mucosal injury; test: Ethanol-induced gastric mucosal injury; type: in vivo, Sprague-Dwaley rats; conditions: 1 ml of 50% ethanol oral; rats
[3] = tested on: indomethacin-induced gastric mucosal injury; test: Healing effect on indomethacin-induced gastric damage; type: in vivo, Sprague-Dwaley rats; conditions: 50 mg kg^−1 i.p. 4 hrs after indomethacin 48 mg kg^−1
Experimental: Gastric mucosal injury was first induced with indomethacin treatment at a dose of 48 mg kg^−1. After 4 hrs of the induction of mucosal injury, some of the animals were divided into two different groups (n=6), i.e., auto healing and SEGA-induced healing. This time point was referred as ‘0’ hr of healing. At this point of time, in the SEGA-induced healing group, SEGA was administered (i.p) at the dose of 50 mg kg^−1 (this dose was selected from the dose-response curve). The animals, which were not treated with SEGA and received only indomethacin, served as the auto healing group. Starting from 0 hr, the stomach was dissected out from all groups at the intervals of 2 hrs, 4 hrs and 8 hrs respectively for measuring ulcer index as described (Maity, P.; et al. J. Biol. Chem. 283:14391-14401; 2008) and histological studies.

[4] = tested on: primary cultured gastric epithelial cells; test: TUNEL assay in cultured gastric mucosal cells; type: cell-based, rat; conditions: in vitro cultured gastric mucosa
Experimental: Gastric mucosal cells were isolated and cultured as described earlier (Pal, C; et al. Free Radic Biol Med, 49(2), 258-267; 2010) with slight modification. Mucosa from rat stomach was scraped into HBSS (pH 7.4) containing 100 U/ml penicillin and 100-μg/ml streptomycin. The mucosa was then minced and suspended in HBSS (pH 7.4), containing 0.05% hyaluronidase and 0.1% collagenase type I. The suspension was incubated for 30 min at 37° C. in 5% CO2 environment with shaking and then filtered through a sterile nylon mess. The filtrate was centrifuged at 600×g for 5 min, the cell pellet was washed with HBSS (pH 7.4) and further centrifuged. The pellet was incubated in 5 ml of Hans F-12 media in T25 flask supplemented with 10% fetal bovine serum (FBS) and 100 U/ml penicillin, 100-μg/ml streptomycin and gentamycin. Cells were cultured at 37° C. with 5% CO2 and grown to ˜90% confluence before treatment.

[5] = tested on: Mitochondrial transmembrane potential (ΔΨm); test: Mitochondrial transmembrane potential (JC-1); type: in vivo, rats; conditions: indomethacin, diclofenac; pretreatment
Experimental: Mitochondrial transmembrane potential (ΔΨm) was measured as described (Maity, P.; et al. J. Biol. Chem. 284:3058-3068; 2009, Maity, P.; et al. J. Biol. Chem. 283:14391-14401; 2008, Maity, P.; et al. J. Pineal Res. 46:314-323; 2009). Mitochondria were isolated from gastric mucosal scraping using Mitoisolation kit (Biochain) as described above. Equal amount of mitochondria (25 μg) from each group (control, indomethacin, diclofenac and SEGA pre-treated indomethacin, diclofenac treated) was taken in 100 μl of JC-1 assay buffer (100 mM MOPS, pH 7.5, containing 550 mM KCl, 50 mM ATP, 50 mM MgCl2, 50 mM sodium succinate, 5 mM EGTA) and were incubated in dark with JC1 (300 nM) for 15 min at 25° C. The fluorescence of each sample was measured in a Hitachi F-7000 fluorescence spectrophtometer (excitation 490 nm, emission 530 nm for JC-1 monomer and emission 590 nm for JC-1 aggregates). ΔΨm was expressed as fluorescence ratio of 590 nm/530 nm.

SMILES: O=C(NCCc1c[nH]c2ccc(O)cc12)c1cc(O)c(O)c(O)c1 [Compound 3a, 3,4,5-trihydroxy-N-(2-(5-hydroxy-1H-indol-3-yl)ethyl)benzamide]
- DPPH scavenging power in words ([1]; among all the derivatives): higher scavenging power
- Absorbance change (ΔA) at 30 min ([1]; compounds 100 μM, 517 nm (Table 2)): 0.45 ± 0.08
- Absorbance change (ΔA) at 30 min ([1]; concentration 10 μM (Table 3)): 0.27 ± 0.03
- Absorbance change (ΔA) at 30 min ([1]; concentration 30 μM (Table 3)): 0.34 ± 0.05
- Absorbance change (ΔA) at 30 min ([1]; concentration 50 μM (Table 3)): 0.37 ± 0.07
- Absorbance change (ΔA) at 30 min ([1]; concentration 80 μM (Table 3)): 0.42 ± 0.07
- Absorbance change (ΔA) at 30 min ([1]; concentration 100 μM (Table 3)): 0.45 ± 0.08
- antioxidant power compared with ascorbic acid, quercetin and gallic acid ([1]; data not shown): almost equal antioxidant power
- gastroprotective effect in ethanol induced gastropathy [2]: protects the gastric mucosa
- healing of already damaged gastric mucosa (ulcer index) [3]: accelerates the healing process
- indomethacin-induced apoptosis (TUNEL) in vitro [4]: prevents the indomethcin-induced apoptosis
- mitochondrial membrane potential (fluorescence ratio 590 nm/530 nm, JC-1) [5]: restores all the NSAIDs-induced mitochondrial dysfuctions
